Target: T1, human TLR7 (Homo sapiens, UniProt Q9NYK1)
T1 construct: All full-length TLR fragments were cloned into pGEM-T Easy vector; expressed in transfected cells; host or cells: 293 HEK cells (ATCC), transient electroporation with pcDNA3.1(-) TLR expression plasmid
T1 sequence (Q9NYK1 27-1049): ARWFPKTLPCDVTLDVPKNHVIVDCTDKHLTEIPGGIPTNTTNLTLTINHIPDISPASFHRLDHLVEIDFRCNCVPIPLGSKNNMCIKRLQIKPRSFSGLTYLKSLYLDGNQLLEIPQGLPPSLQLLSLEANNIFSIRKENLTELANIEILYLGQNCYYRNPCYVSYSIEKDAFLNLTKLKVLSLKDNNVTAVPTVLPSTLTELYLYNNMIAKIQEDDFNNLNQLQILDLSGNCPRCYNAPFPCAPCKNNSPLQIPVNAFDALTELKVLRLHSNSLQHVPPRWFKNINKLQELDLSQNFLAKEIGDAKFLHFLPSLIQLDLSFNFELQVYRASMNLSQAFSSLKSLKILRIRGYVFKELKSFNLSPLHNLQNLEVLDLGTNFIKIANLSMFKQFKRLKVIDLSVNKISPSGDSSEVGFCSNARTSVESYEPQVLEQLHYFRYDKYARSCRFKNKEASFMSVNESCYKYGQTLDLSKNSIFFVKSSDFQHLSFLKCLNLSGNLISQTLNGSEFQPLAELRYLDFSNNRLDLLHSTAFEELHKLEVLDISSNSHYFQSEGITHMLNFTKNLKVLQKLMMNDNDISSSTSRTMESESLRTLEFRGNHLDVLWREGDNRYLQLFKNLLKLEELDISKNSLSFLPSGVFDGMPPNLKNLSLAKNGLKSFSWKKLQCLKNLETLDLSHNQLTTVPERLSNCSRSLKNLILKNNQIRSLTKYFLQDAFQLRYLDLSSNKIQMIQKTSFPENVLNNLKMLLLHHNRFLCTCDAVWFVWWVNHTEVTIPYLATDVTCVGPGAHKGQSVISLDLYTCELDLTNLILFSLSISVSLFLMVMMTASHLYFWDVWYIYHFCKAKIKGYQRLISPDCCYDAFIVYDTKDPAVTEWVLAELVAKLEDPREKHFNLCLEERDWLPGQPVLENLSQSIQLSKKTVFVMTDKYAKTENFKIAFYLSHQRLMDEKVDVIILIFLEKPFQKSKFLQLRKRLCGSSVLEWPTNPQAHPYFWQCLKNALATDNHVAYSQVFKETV
Test: NF-κB luciferase reporter in 293 HEK cells transfected with human TLR7
Assay type: cell-based
Conditions: FIG. 12; transient transfectants; 7 hours stimulation
Description: FIG. 12 depicts the responsiveness of human TLR7 and human TLR8 to ribonucleosides. It was determined that the response by human PBMC to RNA or RVC was mediated by TLR7 or TLR8 and further that the response could be driven by ribonucleosides only. Human 293 cells were either mock-transfected or transfected with human TLR7 or human TLR8 and monitored for responsiveness to ribonucleosides. The open reading frames of human TLR7 (hTLR7) and human TLR8 (hTLR8) were amplified by PCR from a cDNA library of human PBMC using the following primers pairs: for TLR7, 5′-[…]-3′ (SEQ ID NO:15) and 5′-[…]-3′ (SEQ ID NO:16); and for TLR8, 5′-[…]-3′ (SEQ ID NO:17) and 5′-[…]-3′ (SEQ ID NO:18). The sequence information for primer selection was obtained from Genbank accession numbers AF240467 and AF245703. All full-length TLR fragments were cloned into pGEM-T Easy vector (Promega, Mannheim, Germany), excised with NotI, cloned into the expression vector pcDNA 3.1(−) (Invitrogen, Karlsruhe, Germany) and sequenced. Sequences of the coding region of hTLR7 and hTLR8 correspond to the accession numbers AF240467 (SEQ ID NO:25) and AF245703, respectively (SEQ ID NO:29).
For monitoring transient NF-κB activation, 3×10^6 293 HEK cells (ATCC, VA, USA) were electroporated at 200 volt and 960 μF with 1 μg TLR expression plasmid, 20 ng NF-κB luciferase reporter-plasmid and 14 μg of pcDNA3.1(−) plasmid as carrier in 400 μl RPMI medium supplemented with 25% fetal bovine serum (FCS). Cells were seeded at 10^5 cells per well and after over night culture stimulated with R-848 (denoted in FIG. 12 as X; commercially synthesized by GLSynthesis Inc., Worcester, Mass., USA), RVCs or ribonucleosides for a further 7 hours. Stimulated cells were lysed using reporter lysis buffer (Promega, Mannheim, Germany), and lysate was assayed for luciferase activity using a Berthold luminometer (Wildbad, Germany).

- response of TLR7 transfectants (NF-κB luciferase): responded
Structure (SMILES): CCOCc1nc2c(N)nc3ccccc3c2n1CC(C)(C)O [R-848, 4-amino-α,α-dimethyl-2-ethoxymethyl-1H-imidazo[4,5-c]quinoline-1-ethanol, reference compound]

— US9428536B2, “Immunostimulatory G, U-containing oligoribonucleotides” (Zoetis Belgium SA, priority 2002, dated 2016)
